Measured values from patent US9469650B2, “Melampomagnolide B derivatives” (BOARD OF TRUSTEES OF THE UNIVERSITY OF ARKANSAS, priority 2013, dated 2016).

Experiments:
MOLT-4 = experiment: panel of 60 human tumor cell lines, growth inhibition (Leukemia); settings: MOLT-4
MDA-MB-435 = experiment: panel of 60 human tumor cell lines, growth inhibition (Melanoma); settings: MDA-MB-435
SK-MEL-5 = experiment: as above; settings: 8K-MEL-5
SF-539 = experiment: panel of 60 human tumor cell lines, growth inhibition (CNS Cancer); settings: SF-539
SNB-19 = experiment: as above; settings: SNB-19
HCC-2998 = experiment: panel of 60 human tumor cell lines, growth inhibition (Colon Cancer); settings: HCC-2998
HCT-15 = experiment: as above; settings: HCT-15
ACHN = experiment: panel of 60 human tumor cell lines, growth inhibition (Renal Cancer)
RXF 393 = experiment: as above; settings: RXF 393
UO-31 = experiment: as above; settings: UO-31

## C=C1C(=O)O[C@H]2[C@H]1CC/C(COC(=O)N1CCN(C)CC1)=C\CC[C@@]1(C)O[C@@H]21 [JVM 2-44]
MOLT-4
  GI50: 5.49 µM
  TGI: 3.43E−5
MOLT-4; Log10 Concentration −4.0
  Mean Optical Densities: 0.453
  Percent Growth: −30%
MOLT-4; Log10 Concentration −5.0
  Mean Optical Densities: 1.062
  Percent Growth: 35%
MOLT-4; Log10 Concentration −6.0
  Mean Optical Densities: 1.734
  Percent Growth: 92%
MOLT-4; Log10 Concentration −7.0
  Mean Optical Densities: 1.794
  Percent Growth: 98%
MOLT-4; Log10 Concentration −8.0
  Mean Optical Densities: 1.889
  Percent Growth: 106%
MDA-MB-435
  GI50: 7.64 µM
  TGI: 2.27E−5
MDA-MB-435; Log10 Concentration −4.0
  Mean Optical Densities: 0.109
  Percent Growth: −80%
MDA-MB-435; Log10 Concentration −5.0
  Mean Optical Densities: 1.343
  Percent Growth: 44%
MDA-MB-435; Log10 Concentration −6.0
  Mean Optical Densities: 2.253
  Percent Growth: 94%
MDA-MB-435; Log10 Concentration −7.0
  Mean Optical Densities: 2.240
  Percent Growth: 93%
MDA-MB-435; Log10 Concentration −8.0
  Mean Optical Densities: 2.396
  Percent Growth: 102%
SK-MEL-5
  GI50: 16.1 µM
  TGI: 3.06E−5
SK-MEL-5; Log10 Concentration −4.0
  Mean Optical Densities: 0.067
  Percent Growth: −91%
SK-MEL-5; Log10 Concentration −5.0
  Mean Optical Densities: 2.878
  Percent Growth: 87%
SK-MEL-5; Log10 Concentration −6.0
  Mean Optical Densities: 3.118
  Percent Growth: 97%
SK-MEL-5; Log10 Concentration −7.0
  Mean Optical Densities: 3.182
  Percent Growth: 100%
SK-MEL-5; Log10 Concentration −8.0
  Mean Optical Densities: 3.116
  Percent Growth: 97%
SF-539
  GI50: 5.01 µM
  TGI: 1.99E−5
SF-539; Log10 Concentration −4.0
  Mean Optical Densities: 0.121
  Percent Growth: −79%
SF-539; Log10 Concentration −5.0
  Mean Optical Densities: 1.049
  Percent Growth: 34%
SF-539; Log10 Concentration −6.0
  Mean Optical Densities: 1.761
  Percent Growth: 87%
SF-539; Log10 Concentration −7.0
  Mean Optical Densities: 1.799
  Percent Growth: 89%
SF-539; Log10 Concentration −8.0
  Mean Optical Densities: 1.915
  Percent Growth: 97%
SNB-19
  GI50: 19.6 µM
  TGI: 6.35E−5
SNB-19; Log10 Concentration −4.0
  Mean Optical Densities: 0.513
  Percent Growth: −19%
SNB-19; Log10 Concentration −5.0
  Mean Optical Densities: 1.860
  Percent Growth: 79%
SNB-19; Log10 Concentration −6.0
  Mean Optical Densities: 2.030
  Percent Growth: 90%
SNB-19; Log10 Concentration −7.0
  Mean Optical Densities: 2.075
  Percent Growth: 93%
SNB-19; Log10 Concentration −8.0
  Mean Optical Densities: 2.149
  Percent Growth: 97%
HCC-2998
  GI50: 17.5 µM
  TGI: 3.55E−5
HCC-2998; Log10 Concentration −4.0
  Mean Optical Densities: 0.178
  Percent Growth: −73%
HCC-2998; Log10 Concentration −5.0
  Mean Optical Densities: 1.871
  Percent Growth: 90%
HCC-2998; Log10 Concentration −6.0
  Mean Optical Densities: 2.049
  Percent Growth: 103%
HCC-2998; Log10 Concentration −7.0
  Mean Optical Densities: 1.999
  Percent Growth: 99%
HCC-2998; Log10 Concentration −8.0
  Mean Optical Densities: 1.968
  Percent Growth: 97%
HCT-15
  GI50: 3.01 µM
  TGI: 1.42E−5
HCT-15; Log10 Concentration −4.0
  Mean Optical Densities: 0.108
  Percent Growth: −71%
HCT-15; Log10 Concentration −5.0
  Mean Optical Densities: 0.643
  Percent Growth: 13%
HCT-15; Log10 Concentration −6.0
  Mean Optical Densities: 2.210
  Percent Growth: 84%
HCT-15; Log10 Concentration −7.0
  Mean Optical Densities: 2.370
  Percent Growth: 92%
HCT-15; Log10 Concentration −8.0
  Mean Optical Densities: 2.435
  Percent Growth: 94%
ACHN
  GI50: 3.83 µM
  TGI: 1.59E−5
ACHN; Log10 Concentration −4.0
  Mean Optical Densities: 0.112
  Percent Growth: −77%
ACHN; Log10 Concentration −5.0
  Mean Optical Densities: 0.773
  Percent Growth: 19%
ACHN; Log10 Concentration −6.0
  Mean Optical Densities: 1.883
  Percent Growth: 93%
ACHN; Log10 Concentration −7.0
  Mean Optical Densities: 1.961
  Percent Growth: 9B
ACHN; Log10 Concentration −8.0
  Mean Optical Densities: 2.010
  Percent Growth: 101%
RXF 393
  GI50: 2.55 µM
  TGI: 8.91E−6
RXF 393; Log10 Concentration −4.0
  Mean Optical Densities: 0.329
  Percent Growth: −71%
RXF 393; Log10 Concentration −5.0
  Mean Optical Densities: 1.871
  Percent Growth: −5%
RXF 393; Log10 Concentration −6.0
  Mean Optical Densities: 1.644
  Percent Growth: 87%
RXF 393; Log10 Concentration −7.0
  Mean Optical Densities: 1.692
  Percent Growth: 96%
RXF 393; Log10 Concentration −8.0
  Mean Optical Densities: 1.646
  Percent Growth: 88%
UO-31
  GI50: 3.08 µM
  TGI: 1.54E−5
UO-31; Log10 Concentration −4.0
  Mean Optical Densities: 0.127
  Percent Growth: −83%
UO-31; Log10 Concentration −5.0
  Mean Optical Densities: 0.983
